# Laboratory results taken from patent publication US20040171553A1, “Peptides fragments of colostrinin and their use” (priority 2000, published 2004).
# Values joined by “and” are separate entries in the source; they are usually repeats but may differ in a detail not shown here. Equal entries are not always repeated.
# What was measured:
# rabbits = assay: Serum antibody titre by ELISA after immunisation of rabbits with the KHL-conjugated synthetic peptide; type: in vivo, rabbit; conditions: ELISA against corresponding synthetic peptide antigen; for Titre: (Serum Dilution) Post Immunization R1: rabbit R1, after the 10 week immunisation protocol; for Titre: (Serum Dilution) Pre Immunization R1: rabbit R1, before immunisation
# Experimental: To each N-terminal end of the synthetic peptides, L-cysteine was attached, and the peptide was formed into a ring so that the cysteine group lay between the N-terminal and the C-terminal ends of the synthetic peptide. This facilitated peptide conjugation with Keyhole Hemolymph (KHL).
# For immunisation, two young adult rabbits (5-6 months old, weighing 5-6 lbs [2.3-2.7 kg]) were used. Each antigen (i.e., each synthetic peptide) was given subcutaneously and intramuscularly in 0.1 ml injections at ten different sites. The protocol used followed the following sequence:
# The level of antibodies in the serum was established by ELISA (enzyme-linked immunosorbent assay) with the corresponding synthetic peptide antigen. This technique involved the following steps:
# 1. The antigen was diluted with a 0.1 M bicarbonate buffer (pH 9.0) to yield a 10 μg of antigen/ml solution. A volume of 50 μl of this solution was placed into each microwell of a 96 well plate.
# 2. The plates were covered and incubated at 37° C. for 3 hours.
# 3. The wells were washed with a coupling buffer and blocked using 200 μl of Pierce standard solution of BSA (bovine serum albumin).
# 4. 50 μl of dilutent BSA (0.75% soln.) was pipetted into each well. 50 μl of antibody serum sample diluted 1:100 in dilutent BSA were placed in lane A of each row.
# 5. 1:2 serial dilutions were performed moving down the plate.
# 6. The plates were covered and incubated at room temperature for 60 minutes.
# 7. The plates were washed four times with PBS wash solution.
# 8. A volume of 50 μl of goat anti-rabbit IgG (H&L) HRP conjugate at 1:1000 dilution in BSA was pipetted into each well and incubated at room temperature for 60 minutes (H&L=heavy and light chain; HRP=horseradish peroxidase).
# 9. The plates were washed four times with PBS wash solution.
# 10. A volume of 50 μl of substrate solution 2,2′-azino-bis(3-ethylbenzothiazoline-6-sulfonic acid)-diammonium salt (ABTS available from Pierce, which is used to help visualise the extent of the antibody/antigen reaction) was pipetted into each well and incubated at room temperature for about 2 minutes.
# 11. The reaction was stopped by adding 50 μl of 1% SDS (sodium dodecyl sulfate) into each well.
# 12. The wells were then read on a dynoplate reader at 405.
# The data presented in Table 3 show the serum antibody titers against specific antibodies after the 10 week immunisation protocol.
# [1] = test system: beta-amyloid precursor protein; assay: Ischemia-induced beta-amyloid precursor protein accumulation in rats, immunostaining with monoclonal antibodies; type: in vivo; set-up: Jonas C-terminal APP / Beringer- terminal APP / 511-608 APP ALZ 90 / Total: scale not given here; conditions: ischemic rats; for β-amyloid plaque level, overall result in words: summary of Table 4; for Jonas C-terminal APP: C-terminal end of precursor protein; for Total: sum of the three APP immunostaining levels
# Source text: Ischemia was induced in rats in order to encourage the development of the beta-amyloid precursor proteins. The rats were then subjected to a variety of treatment regimes, and the degree of the beta-amyloid precursor protein presence was investigated. The general technique is described in “Complete cerebral ischemia with short-term survival in rats induced by cardiac arrest. I. Extracellular accumulation of Alzheimer's β-amyloid protein precursor in the brain.”, Pluta, R. et al, Brain Research 649 (1994) 323-328.
# The treatment regime varied in terms of the length of time ischemia was induced, and the length of time treatment was applied.
# The Colostrinin was obtained by conventional techniques, as described, for example, in WO98/14473. The peptides were produced using the method described in Example 1. The control was not subjected to any treatment.
# Each column represents the results if the immunostaining with specific monoclonal antibodies directed against fragments of amyloid or its N and C precursor protein.
# [2] = β-amyloid plaque level, immunostaining
Substance,Titre: (Serum Dilution) Post Immunization R1 (rabbits),Titre: (Serum Dilution) Pre Immunization R1 (rabbits),"β-amyloid plaque level, overall result in words [1]","Jonas C-terminal APP [1, 2]","Beringer- terminal APP ([1]; β-amyloid plaque level, N-terminal end of precursor protein, immunostaining)",Total [1],"511-608 APP ALZ 90 ([1]; β-amyloid plaque level, 511-608 position of precursor protein, immunostaining)"
PKLKVEVPEP [Peptide 4],25600,0,,,,,
QPLLQVMMEPQ [Peptide 1],12800,0,particularly good results,1 and 2,,,
ESYVPLFP [Peptide 5],25600,0,particularly good results,,2 and 4,,
PVVVPPFLQ [Peptide 9],25600,0,,3 and 2,,8 and 5 and 6,
QPKVLPVPQ [Peptide 7],25600,0,,3,,11 and 10 and 9,4 and 5
FLPVVN [Peptide 2],12800,0,,,,,
PVLPVEPFPF [Peptide 3],12800,0,particularly good results,1 and 2,,,
LLYQEPV [Peptide 6],25600,0,,,,,
PLPPTVMFPPQ [Peptide 8],25600,0,,,,,
LPLPLVRS [Peptide 10],25600,0,,,,,
